Reference: ChEMBL document CHEMBL2169864, “Binding Model for the Interaction of Anticancer Arylsulfonamides with the p300 Transcription Cofactor” (ACS Med Chem Lett, 2012)
The source made the active and inactive calls. The calls are words filed in the database; no cut-off is given here.

How the values were obtained:
[1] = molecular target: T1, Histone acetyltransferase p300 (Homo sapiens, UniProt Q09472); experiment: Binding affinity to recombinant P300 CH1 domain assessed as dissociation constant by surface plasmon resonance analysis
T1 sequence (Q09472 whole entry, the tested form may be a part): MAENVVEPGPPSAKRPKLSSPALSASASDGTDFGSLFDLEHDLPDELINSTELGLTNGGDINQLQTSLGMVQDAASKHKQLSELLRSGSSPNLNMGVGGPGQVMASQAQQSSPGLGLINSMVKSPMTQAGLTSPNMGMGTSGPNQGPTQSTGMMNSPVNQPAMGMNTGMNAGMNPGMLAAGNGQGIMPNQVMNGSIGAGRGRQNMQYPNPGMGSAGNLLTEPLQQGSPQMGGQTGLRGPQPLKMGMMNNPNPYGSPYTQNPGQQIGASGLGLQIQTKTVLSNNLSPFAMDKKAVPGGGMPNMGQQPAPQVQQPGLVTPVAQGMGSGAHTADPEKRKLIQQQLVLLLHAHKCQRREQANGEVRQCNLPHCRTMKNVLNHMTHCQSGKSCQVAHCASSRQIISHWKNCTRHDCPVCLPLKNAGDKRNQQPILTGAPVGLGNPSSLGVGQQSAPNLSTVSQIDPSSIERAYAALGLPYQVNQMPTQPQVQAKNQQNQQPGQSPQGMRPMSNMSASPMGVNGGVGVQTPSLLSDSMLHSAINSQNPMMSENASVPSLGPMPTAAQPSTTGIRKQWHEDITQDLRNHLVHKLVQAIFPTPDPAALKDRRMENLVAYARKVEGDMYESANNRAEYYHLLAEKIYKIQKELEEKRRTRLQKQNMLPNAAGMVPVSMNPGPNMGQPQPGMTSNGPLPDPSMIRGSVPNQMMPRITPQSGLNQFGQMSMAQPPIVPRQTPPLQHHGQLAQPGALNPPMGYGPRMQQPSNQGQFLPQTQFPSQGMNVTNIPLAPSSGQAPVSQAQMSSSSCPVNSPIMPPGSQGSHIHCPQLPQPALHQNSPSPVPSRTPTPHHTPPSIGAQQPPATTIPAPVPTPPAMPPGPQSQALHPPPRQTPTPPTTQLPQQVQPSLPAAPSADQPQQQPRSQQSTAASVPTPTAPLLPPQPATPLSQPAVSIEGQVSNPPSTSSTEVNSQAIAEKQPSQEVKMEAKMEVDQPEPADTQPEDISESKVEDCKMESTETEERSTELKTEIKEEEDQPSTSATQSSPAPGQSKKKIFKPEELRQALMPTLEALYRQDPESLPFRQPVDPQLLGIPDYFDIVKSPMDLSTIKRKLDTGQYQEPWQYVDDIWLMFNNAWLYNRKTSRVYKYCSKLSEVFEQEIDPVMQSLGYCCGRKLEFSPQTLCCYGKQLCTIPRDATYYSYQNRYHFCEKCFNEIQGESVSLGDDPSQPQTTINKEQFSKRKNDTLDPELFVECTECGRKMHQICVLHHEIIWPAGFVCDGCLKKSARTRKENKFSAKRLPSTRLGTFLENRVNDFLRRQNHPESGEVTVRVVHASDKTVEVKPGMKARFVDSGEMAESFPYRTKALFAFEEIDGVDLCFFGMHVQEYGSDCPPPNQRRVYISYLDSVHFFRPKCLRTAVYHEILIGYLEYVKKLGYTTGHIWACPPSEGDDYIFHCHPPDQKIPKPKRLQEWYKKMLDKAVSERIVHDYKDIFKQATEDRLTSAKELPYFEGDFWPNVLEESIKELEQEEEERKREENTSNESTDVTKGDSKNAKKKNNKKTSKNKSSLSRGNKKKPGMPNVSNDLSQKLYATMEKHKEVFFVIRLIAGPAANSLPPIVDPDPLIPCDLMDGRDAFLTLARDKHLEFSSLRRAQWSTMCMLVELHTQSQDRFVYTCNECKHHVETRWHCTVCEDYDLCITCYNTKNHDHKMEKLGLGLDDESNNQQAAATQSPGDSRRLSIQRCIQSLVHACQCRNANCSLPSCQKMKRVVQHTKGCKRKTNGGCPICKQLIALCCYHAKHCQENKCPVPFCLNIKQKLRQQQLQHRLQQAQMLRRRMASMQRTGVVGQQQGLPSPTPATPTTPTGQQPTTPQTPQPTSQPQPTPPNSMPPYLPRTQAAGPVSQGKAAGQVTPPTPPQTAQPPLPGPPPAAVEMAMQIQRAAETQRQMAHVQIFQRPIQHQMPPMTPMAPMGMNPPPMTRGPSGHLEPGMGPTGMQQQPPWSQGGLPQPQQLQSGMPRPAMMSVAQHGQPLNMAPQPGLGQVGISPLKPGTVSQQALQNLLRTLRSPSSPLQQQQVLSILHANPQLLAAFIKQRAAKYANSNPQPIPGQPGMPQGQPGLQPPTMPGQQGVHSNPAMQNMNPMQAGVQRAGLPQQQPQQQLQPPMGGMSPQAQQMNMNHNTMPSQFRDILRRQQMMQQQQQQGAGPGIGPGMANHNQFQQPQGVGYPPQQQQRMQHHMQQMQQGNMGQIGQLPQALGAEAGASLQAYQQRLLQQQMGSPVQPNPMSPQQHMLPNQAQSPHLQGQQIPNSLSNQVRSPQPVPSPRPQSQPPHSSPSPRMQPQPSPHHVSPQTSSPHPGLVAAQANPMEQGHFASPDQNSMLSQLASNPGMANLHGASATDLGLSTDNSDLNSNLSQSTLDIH

[2] = molecular target: Hypoxia-inducible factor 1-alpha (Homo sapiens) (UniProt Q16665); experiment: Binding affinity to HIF1alpha in human LN229 cell nuclear extracts by Western blot analysis
Sequence of Hypoxia-inducible factor 1-alpha (Homo sapiens) (Q16665 whole entry, looked up): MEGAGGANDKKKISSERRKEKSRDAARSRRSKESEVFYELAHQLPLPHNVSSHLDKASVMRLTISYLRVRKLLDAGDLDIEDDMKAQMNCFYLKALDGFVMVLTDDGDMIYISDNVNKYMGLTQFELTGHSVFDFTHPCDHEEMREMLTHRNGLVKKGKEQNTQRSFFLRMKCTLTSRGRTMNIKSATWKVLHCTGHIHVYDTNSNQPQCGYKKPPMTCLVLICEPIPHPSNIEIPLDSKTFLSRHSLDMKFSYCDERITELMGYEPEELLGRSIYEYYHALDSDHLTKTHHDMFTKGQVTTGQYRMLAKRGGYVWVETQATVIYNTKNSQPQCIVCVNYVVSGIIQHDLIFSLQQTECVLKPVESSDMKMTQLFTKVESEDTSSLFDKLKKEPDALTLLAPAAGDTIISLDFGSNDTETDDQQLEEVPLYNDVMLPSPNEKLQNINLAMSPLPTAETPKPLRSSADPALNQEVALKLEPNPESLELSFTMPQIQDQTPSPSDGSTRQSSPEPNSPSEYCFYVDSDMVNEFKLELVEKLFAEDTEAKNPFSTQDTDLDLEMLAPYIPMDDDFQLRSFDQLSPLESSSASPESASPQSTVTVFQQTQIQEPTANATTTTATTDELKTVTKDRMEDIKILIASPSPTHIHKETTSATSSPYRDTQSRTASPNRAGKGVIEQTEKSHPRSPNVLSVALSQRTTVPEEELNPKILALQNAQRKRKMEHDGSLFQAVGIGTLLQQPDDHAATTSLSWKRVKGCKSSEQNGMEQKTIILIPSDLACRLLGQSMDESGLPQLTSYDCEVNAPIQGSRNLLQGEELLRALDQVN

[3] = molecular target: T1, Histone acetyltransferase p300; experiment: Binding affinity to P300 in human LN229 cell nuclear extracts by Western blot analysis
[4] = molecular target: T1, Histone acetyltransferase p300; experiment: Binding affinity to GST-tagged recombinant P300 CH1 domain expressed in Escherichia coli BL21 by Coomassie staining-based gel electrophoresis; settings: tested as the 14C-labelled form

COc1ccc(S(=O)(=O)N(Cc2ccc3c(c2)C=CC(C)(C)O3)c2ccccc2)cc1OC
Kd [1]: 345 nM | Activity [2]: inactive | Activity [3]: Active | Activity [4]: Active
